Test results taken from publication PMC2994877, “A Full Pharmacological Analysis of the Three Turkey β-Adrenoceptors and Comparison with the Human β-Adrenoceptors” (PLoS ONE, 2010).
Like-named read-outs stand apart in the source and are kept apart here. Each block holds one molecule with its values, some of them ahead of it.

Columns and labels:
Human β2-adrenoceptor = target: Human β2-adrenoceptor; parameters: method as in PMID 15655528, PMID 20590599; details: Human β2, given for comparison; ref 25 and 30; cited from earlier work
Human β3-adrenoceptor = details: Human β3, given for comparison; ref 25 and 30; cited from earlier work
[1] = target: T1, turkey β4C-adrenoceptor (tβ4C) (Meleagris gallopavo, UniProt P43141); test: cell-based; assay type: binding
T1 construct: expressed in transfected cells

Human β1-adrenoceptor = target: Human β1-adrenoceptor; parameters: method as in PMID 15655528, PMID 20590599; details: Human β1, given for comparison; ref 25 and 30; cited from earlier work
[2] = target: T2, turkey β3C-adrenoceptor (tβ3C) (Meleagris gallopavo, UniProt A0A803YLI8); test: 3H-CGP12177 whole cell binding, CHO tβ3C cells
[3] = target: T2, turkey β3C-adrenoceptor (tβ3C); test: CRE-SPAP production, CHO tβ3C cells; assay type: cell-based; details: for Emax: read-out: % isop max
[4] = target: T1, turkey β4C-adrenoceptor (tβ4C); test: cell-based; assay type: cell-based; details: for % isop max: CRE-SPAP, % of 10 µM isoprenaline maximum
[5] = competition with 3H-CGP12177, whole cells, CHO tβ4C, given as log KD, mean ± s.e.m., read-out: Log KD (converted)
[6] = competition with 3H-CGP12177, whole cells, CHO tβ3C, given as log KD, mean ± s.e.m., read-out: Log KD (converted)
[7] = competition with 3H-CGP12177, whole cells, CHO tβ4C, given as log KD, mean ± s.e.m.
[8] = competition with 3H-CGP12177, whole cells, CHO tβ3C, given as log KD, mean ± s.e.m.

T2 sequence (A0A803YLI8 entry or part of it): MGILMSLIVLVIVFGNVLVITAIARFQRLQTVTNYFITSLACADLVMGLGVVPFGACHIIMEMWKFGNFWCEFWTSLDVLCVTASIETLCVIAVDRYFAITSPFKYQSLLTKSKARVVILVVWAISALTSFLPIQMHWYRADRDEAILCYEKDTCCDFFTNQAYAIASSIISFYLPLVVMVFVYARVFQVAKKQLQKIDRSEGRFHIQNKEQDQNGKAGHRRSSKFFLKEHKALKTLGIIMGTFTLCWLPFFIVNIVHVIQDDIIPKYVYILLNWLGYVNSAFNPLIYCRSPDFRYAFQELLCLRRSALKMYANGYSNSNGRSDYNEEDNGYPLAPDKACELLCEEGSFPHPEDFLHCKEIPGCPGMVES
T1 sequence (P43141 whole entry): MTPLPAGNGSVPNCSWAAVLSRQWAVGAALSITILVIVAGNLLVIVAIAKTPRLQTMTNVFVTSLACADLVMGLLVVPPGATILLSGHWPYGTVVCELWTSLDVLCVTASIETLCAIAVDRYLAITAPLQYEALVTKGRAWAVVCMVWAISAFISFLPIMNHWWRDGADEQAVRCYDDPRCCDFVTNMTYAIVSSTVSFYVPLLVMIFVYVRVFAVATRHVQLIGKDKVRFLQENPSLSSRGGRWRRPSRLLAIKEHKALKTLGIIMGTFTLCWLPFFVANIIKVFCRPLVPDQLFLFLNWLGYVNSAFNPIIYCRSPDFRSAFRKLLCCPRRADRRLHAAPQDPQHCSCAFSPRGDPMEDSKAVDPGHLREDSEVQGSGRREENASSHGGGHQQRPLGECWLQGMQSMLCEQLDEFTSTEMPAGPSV

Kd [1, 5]: 7410 nM
Kd [2, 6]: 4170 nM
SMILES: CC(C)NCC(O)c1cc(O)cc(O)c1 (stereo not drawn) [Metaproterenol]
Log KD (Human β2-adrenoceptor): −5.30
Log KD (Human β3-adrenoceptor): −4.06
Log KD (Human β1-adrenoceptor): −4.71

SMILES: Br.COC(=O)COc1ccc(CC(C)NC[C@H](O)c2cccc(Cl)c2)cc1 (stereo partly drawn) [BRL35135A]
Log KD (Human β2-adrenoceptor): −7.38
Log KD (Human β3-adrenoceptor): −6.73
Log KD [1, 7]: −6.39±0.03
Log KD (Human β1-adrenoceptor): −6.08
Log KD [2, 8]: −7.42±0.06

SMILES: CC(C)(C)NCC(O)c1cc(O)cc(O)c1 (stereo not drawn) [Terbutaline]
Kd [1, 5]: 33900 nM
Kd [2]: 2400 nM

SMILES: CC(C)NCC(O)c1ccc(N)c(C#N)c1 (stereo not drawn) [Cimaterol]
Log KD (Human β2-adrenoceptor): −7.26
Log KD (Human β3-adrenoceptor): −5.28
Emax [3]: 103 ± 2.2%
% isop max ([4]; CHO tβ4C cells): 98.2±2.3%

Kd [1, 5]: 0.123 nM
SMILES: COc1ccccc1OCCNCC(O)COc1cccc2[nH]c3ccccc3c12 (stereo not drawn) [Carvedilol]

Kd [1, 5]: 0.0537 nM
Kd [2, 6]: 0.012 nM
SMILES: CC(C)NCC(O)COc1cccc2[nH]c3ccccc3c12 (stereo not drawn) [Carazolol]
Log KD (Human β3-adrenoceptor): −8.35

SMILES: CC(CCc1ccccc1)NCC(O)c1ccc(O)c(C(N)=O)c1 (stereo not drawn) [Labetolol]
Log KD (Human β3-adrenoceptor): −6.18
Log KD [1, 7]: −7.70±0.04
Log KD [2, 8]: −7.42±0.04

SMILES: COc1ccc(CC(C)NCC(O)c2ccc(O)c(NC=O)c2)cc1 (stereo not drawn) [Formoterol]
Log KD (Human β3-adrenoceptor): −5.82
EC50 [3]: 0.0447 nM
EC50 [4]: 0.166 nM
Kd [1]: 20 nM
Kd [2]: 11 nM

SMILES: COc1ccc(OC)c(C(O)C(C)NC(C)(C)C)c1 (stereo not drawn) [Butoxamine]
Log KD (Human β2-adrenoceptor): −6.23
Log KD (Human β3-adrenoceptor): >−4
Kd [1, 5]: 12600 nM
Log KD (Human β1-adrenoceptor): −4.85
Kd [2]: 1020 nM

Kd ([3]; Log KD CGP20712A, vs agonist BRL37344, CRE-SPAP, CHO tβ3C cells): 3090 nM
Kd ([3]; Log KD CGP20712A, vs agonist CGP12177, CRE-SPAP, CHO tβ3C cells): 2690 nM
Kd ([3]; Log KD CGP20712A, vs agonist adrenaline, CRE-SPAP, CHO tβ3C cells): 4570 nM
Kd ([3]; Log KD CGP20712A, vs agonist cimaterol, CRE-SPAP, CHO tβ3C cells): 3470 nM
Kd ([3]; Log KD CGP20712A, vs agonist clenbuterol, CRE-SPAP, CHO tβ3C cells): 1780 nM
Kd ([3]; Log KD CGP20712A, vs agonist dobutamine, CRE-SPAP, CHO tβ3C cells): 7410 nM
Kd ([3]; Log KD CGP20712A, vs agonist fenoterol, CRE-SPAP, CHO tβ3C cells): 2450 nM
Kd ([3]; Log KD CGP20712A, vs agonist formoterol, CRE-SPAP, CHO tβ3C cells): 3630 nM
Kd ([3]; Log KD CGP20712A, vs agonist isoprenaline, CRE-SPAP, CHO tβ3C cells): 3720 nM
Kd ([3]; Log KD CGP20712A, vs agonist noradrenaline, CRE-SPAP, CHO tβ3C cells): 5250 nM
Kd ([3]; Log KD CGP20712A, vs agonist salbutamol, CRE-SPAP, CHO tβ3C cells): 3240 nM
Kd ([3]; Log KD CGP20712A, vs agonist salmeterol, CRE-SPAP, CHO tβ3C cells): 6310 nM
Kd [2]: 3980 nM
SMILES: Cn1cc(C(F)(F)F)nc1-c1ccc(OCC(O)CNCCOc2ccc(O)c(C(N)=O)c2)cc1 (stereo not drawn) [CGP20712A]

SMILES: CC(C)NCC(O)COc1cccc2[nH]ccc12 (stereo not drawn) [Pindolol]
Kd [1, 5]: 5.25 nM
Kd [2]: 1.95 nM

SMILES: CC(C)NCC(O)c1ccc2ccccc2c1 (stereo not drawn) [Pronethalol]
Log KD (Human β3-adrenoceptor): −5.89
Kd [1]: 87.1 nM
Log KD (Human β1-adrenoceptor): −6.44
Kd [2, 6]: 102 nM

SMILES: CC(C)NCC(O)c1ccc(O)c(O)c1 (stereo not drawn) [Isoprenaline]
Log KD (Human β3-adrenoceptor): −5.52
EC50 [3]: 26.9 nM
% isop max ([3]; CRE-SPAP, % of 10 µM isoprenaline maximum, CHO tβ3C cells): 100%
% isop max ([4]; CHO tβ4C cells): 100%
CRE-SPAP gene transcription response ([4]; tβ4C): 2.47±0.10 fold over basal
Kd [2]: 316 nM

SMILES: CC(CCc1ccc(O)cc1)NCC(O)c1ccc(O)cc1 (stereo not drawn) [Ractopamine]
Log KD (Human β3-adrenoceptor): −5.82
Kd [1, 5]: 269 nM
Log KD (Human β1-adrenoceptor): −6.97
Kd [2]: 224 nM

SMILES: COCCNC(=O)COc1ccc(OCCNC[C@H](O)COc2ccccc2)cc1 [ZD7114]
Log KD (Human β2-adrenoceptor): −7.31
Log KD (Human β3-adrenoceptor): −6.78
Log KD [1, 7]: −7.59±0.04
Log KD [2, 8]: −6.59±0.10

Kd ([3]; Log KD ICI118551, vs agonist BRL37344, CRE-SPAP, CHO tβ3C cells): 0.49 nM
Kd ([3]; Log KD ICI118551, vs agonist CGP12177, CRE-SPAP, CHO tβ3C cells): 0.316 nM
Kd ([3]; Log KD ICI118551, vs agonist adrenaline, CRE-SPAP, CHO tβ3C cells): 1.62 nM
Kd ([3]; Log KD ICI118551, vs agonist cimaterol, CRE-SPAP, CHO tβ3C cells): 0.398 nM
Kd ([3]; Log KD ICI118551, vs agonist clenbuterol, CRE-SPAP, CHO tβ3C cells): 0.339 nM
Kd ([3]; Log KD ICI118551, vs agonist dobutamine, CRE-SPAP, CHO tβ3C cells): 1.15 nM
Kd ([3]; Log KD ICI118551, vs agonist fenoterol, CRE-SPAP, CHO tβ3C cells): 0.457 nM
Kd ([3]; Log KD ICI118551, vs agonist formoterol, CRE-SPAP, CHO tβ3C cells): 0.513 nM
Kd ([3]; Log KD ICI118551, vs agonist isoprenaline, CRE-SPAP, CHO tβ3C cells): 2.51 nM
Kd ([3]; Log KD ICI118551, vs agonist noradrenaline, CRE-SPAP, CHO tβ3C cells): 1.38 nM
Kd ([3]; Log KD ICI118551, vs agonist salbutamol, CRE-SPAP, CHO tβ3C cells): 0.49 nM
Kd ([3]; Log KD ICI118551, vs agonist salmeterol, CRE-SPAP, CHO tβ3C cells): 0.617 nM
Kd [2]: 1.17 nM
SMILES: Cc1ccc(OCC(O)C(C)NC(C)C)c2c1CCC2 (stereo not drawn) [ICI118551]

SMILES: CC(C)(C)NCC(O)c1ccc(O)c(CO)c1 (stereo not drawn) [Salbutamol]
EC50 ([3]; CRE-SPAP production, CHO tβ3C cells, read-out: Log EC50 (converted)): 3.55 nM
Emax [3]: 102 ± 3.1%
EC50 ([4]; CRE-SPAP production, CHO tβ4C cells, read-out: Log EC50 (converted)): 42.7 nM
% isop max ([4]; CHO tβ4C cells): 99.9±2.3%
Kd [1, 5]: 4370 nM
Kd [2]: 724 nM

Kd [1, 5]: 18.2 nM
Kd [2, 6]: 11.2 nM
SMILES: CC(C)(C)NCC(O)COc1cccc2c1CC(O)C(O)C2 (stereo not drawn) [Nadolol]
Log KD (Human β2-adrenoceptor): −8.60
Log KD (Human β3-adrenoceptor): −6.18
Log KD (Human β1-adrenoceptor): −7.23
